The subject of test [1] is H3K27me3 in PBMC monocytes. The test is described as follows: H3K27me3 level in PBMC monocytes (FACS, H3K27me3/H3 ratio). It is filed as in vivo, CD-1 mice. To be noted: vs vehicle. On the procedure: (§1) Female CD-1 mice (8 weeks old) were housed and handled in a temperature-controlled environment with a 12-h light/12-h dark cycle. A total of 25 mice were assigned to 5 groups by randomization based on body weight, followed by 5 days of treatment with vehicle (po, qd), 3 mg/kg Cpd. 73 (po, qd), 10 mg/kg Cpd. 73 (po, qd), 30 mg/kg Cpd. 73 (po, qd), or 90 mg/kg Cpd. 73 (po, qd). The protocols and procedures involving the care and use of animals were approved by the Institutional Animal Care and Use Committee (IACUC) of WuXiAppTec (Shanghai) Co., Ltd. (Shanghai, China).
Mice were euthanatized 4 hours post the last dose. Whole blood and bone marrow were collected. Bone marrow cells were flushed from femur and tibia with IMDM+/+ (IMDM, 10% heat inactivated FBS, 100 U/mL penicillin and 100 μg/mL streptomycin). Aggregate was removed by passing through 40 μm cell strainer. 5 mL DPBS was used to pellet the cells after centrifugation, and the cell number was counted. Whole blood was added with 1×RBC lysis buffer remove RBC (whole blood: 1×RBC lysis buffer=1:9), and mononuclear cells were collected by centrifugation. The cells were then washed with 1×DPBS for once and resuspended in 3 ml DPBS after centrifugation followed by cell number counting.
Bone marrow cells were stained with FITC-conjugated anti-mouse TER-119 antibody (Thermo Fisher, 11-5921-82) and eFluor 506-conjugated anti-mouse CD45 antibody (Thermo Fisher, 69-0451-82). TER-119+ cells were erythroid lineage cells. PBMC were stained with eFlour 450-conjugated anti-mouse CD11b antibody (Invitrogen, 48-0112-82), PerCP-eFluor710-conjugated anti-mouse CD3 antibody (Invitrogen, 46-0032-82), eFluor 506-conjugated anti-mouse CD45 antibody (Thermo Fisher, 69-0451-82). CD45+CD3−CD11b+ cells were monocytes from PBMC.
After washing, centrifugation and fixation, the cells were permeabilized and further incubated with antibodies of H3K27m3 (Tri-Methyl-Histone H3 (Lys27) (C36B11) Rabbit mAb (PE Conjugate), CST, 40724S) and H3 (Histone H3 (D1H2) XP® Rabbit mAb (Alexa Fluor®647 Conjugate), CST, 12230S), followed by FACS analysis to quantify the mean fluorescence intensity of target cells. The ratio between the fluorescence intensity of H3K27me3 and H3 were used to reflect the level of H3K27me3 in the cells.

Test [2] deals with Hbb-bh1 mRNA. The test is described as follows: Hbb-bh1 mRNA level in whole blood (qPCR, relative to GAPDH). It is filed as in vivo, CD-1 mice. The procedure: as §1
Mouse Hbb-bh1 gene, the homolog to human HBG1 gene encoding γ hemoglobin, is used as an efficacy biomarker in wide-type CD-1 mice. One hundred and twenty μL whole blood was collected for RNA isolation following the instructions of Trizol LS reagent (Invitrogen, 10296028). The relative expression of Hbb-bh1 mRNA to GAPDH mRNA were quantified by qPCR. The relative expression of Hbb-bh1 mRNA in the whole blood of CD-1 mice increased with increasing dose of Cpd. 73 from 3 mg/kg (qd×5 days) to 90 mg/kg (qd×5 days). The Hbb-bh1 mRNA levels were 82.2%, 114.6% and 178.3% of the vehicle control group when Cpd. […] 73 (p<0.05, vs. vehicle). The increased expression of Hbb-bh1 mRNA may result in increased expression of mouse βh1 hemoglobin.
A general note: Quantitative PCR measures a nucleic acid by following its amplification.

Test [3] concerns HbF in human CD34+ HSC. The test is described as follows: HbF concentration in human CD34+ HSC by ELISA. It is filed as cell-based. To be noted: 7 days of treatment. The procedure: (§2) Human cord blood CD34+ hematopoietic stem cells (HSC) were first expanded in the expansion medium (StemSpan SFEM II+StemSpan CD34 Expansion Supplement) to achieve the desired number of cells, and then differentiated in differentiation medium (StemSpan SFEM II+StemSpan Erythroid Expansion Supplement (100×)) for three days without drug treatment. Various concentrations of Cpd. 73 were added on the fourth day of differentiation and further incubated with the cells for another 7 days. 33 mM Hydroxyurea was used as the control.
After 7 days of treatment, the cells were collected and lysed. The concentration of HbF in the cell lysate was determined using a Human Fetal Hemoglobin (HBF) ELISA Kit (MyBioSource, MBS2024474). […] The cellular HbF concentration were 1.27-, 1.39-, 1.52-, 1.58- and 1.69-folds of the vehicle group when the cells were treated with 0.01 μM, 0.03 μM, 0.1 μM, 0.3 μM and 1.0 μM Cpd. 73 respectively. […] 73 where the cellular HbF concentration was 1.69-folds of the vehicle group (p<0.01). HbF concentration of cells treated with 33 mM Hydroxyurea was 1.18-folds of the vehicle group. Clinically, small increases of HbF concentration (1-5%) have the potential to provide clinical benefits to all SCD patients.
Background: An ELISA detects its analyte on a solid surface through an enzyme-linked reagent.

The subject of test [4] is HbF+ cells in human CD34+ HSC. The experiment in a line: HbF+ cell % in human CD34+ HSC by FACS. To be noted: 7 days of treatment. It is filed as cell-based. The procedure: as §2
After 7 days of treatment, the cells were collected and stained with PE-conjugated Mouse Anti-Human Fetal Hemoglobin (BD, 560041). The percentage of HbF+ cells were quantified by FACS. […] 73 respectively. […] 73 where HbF+ cell % was 2.58-folds of the vehicle group (p<0.0001). The % of HbF+ cells was 1.82-folds of the vehicle group when the cells were treated with 33 mM Hydroxyurea.

As for `CC(C)N1Cc2cc(C(F)(F)F)ncc2-c2cnc(NCc3c(F)ccc4c3CCO4)n3cnc(c23)C1=O` [Cpd. 73, 12-(((5-fluoro-2,3-dihydrobenzofuran-4-yl)methyl)amino)-4-isopropyl-7-(trifluoromethyl)-4,5-dihydro-3H-2,4,8,11,12a-pentaazabenzo[4,5]cycloocta[1,2,3-cd]inden-3-one], the “percent of decrease of H3K27me3 level” value is on record as 17.9% in test [1] (3 mg/kg po qd×5 days), 40.5% in test [1] (10 mg/kg po qd×5 days), 8.8% in test [1] (30 mg/kg po qd×5 days) and 41.2% in test [1] (90 mg/kg po qd×5 days). In addition, the “Hbb-bh1 mRNA level, of the vehicle control group” value in test [2] (3 mg/kg po qd×5 days) stood at 82.2%; in test [2] (10 mg/kg po qd×5 days), 114.6%; in test [2] (30 mg/kg po qd×5 days) it was 178.3%. In test [2] (90 mg/kg po qd×5 days, p<0.05 vs vehicle), the “Hbb-bh1 mRNA, fold of increase” value is reported as 3.04 fold. For the same molecule, the “cellular HbF concentration, folds of the vehicle group” value in test [3] (0.01 μM) is reported as 1.27 folds; in test [3] (0.03 μM), 1.39 folds; in test [3] (0.1 μM) it was 1.52 folds; in test [3] (0.3 μM) it was 1.58 folds; in test [3] (1.0 μM, maximal effect, p<0.01), 1.69 folds. The “% of HbF+ cells, folds of the vehicle group” value turned out to be 0.73 folds in test [4] (0.01 μM); 0.86 folds in test [4] (0.03 μM); 1.50 folds in test [4] (0.1 μM); 1.73 folds in test [4] (0.3 μM); 2.58 folds in test [4] (1.0 μM, maximal effect, p<0.0001).

The values are drawn from patent publication US20240366611A1, “METHODS OF TREATING A DISEASE OR DISORDER” (Ascentage Pharma (Suzhou) Co., Ltd., priority 2021, published 2024).
